According to patent US6670370B1 (priority 2001, dated 2003):
Where a name gives a salt, the structure may show the parent alone. Read-outs that look alike come from different tables or passages of the source.

Columns and labels:
[1] = background statement on known substance, cited from earlier work
[2] = Tap density of milled dextromethorphan tannate powders; format: physicochemical; conditions: dried to moisture level (K.F.) of 5%, milled to particle size of about 100 mesh
[3] = Solubility in water (descriptive); conditions: physical properties stated in detailed description

Molecule	Tap Density [2] [g/cc]	solubility in water [1]	further results
COc1ccc2c(c1)[C@]13CCCC[C@@H]1[C@H](C2)N(C)CC3 [hydrobromide monohydrate salt, dextromethorphan hydrobromide monohydrate]			solubility in water ([1]; hydrobromide monohydrate): soluble
dextromethorphan tannate [D-M Tannate synthesized by IPA route (Example 5)]	0.321		
dextromethorphan tannate [D-M Tannate of the invention]	0.723		
COc1ccc2c(c1)[C@]13CCCC[C@@H]1[C@H](C2)N(C)CC3 [dextromethorphan free base, 3-methoxy-17-methyl-9α, 13α, 14α-morphinan]		insoluble	solubility in water [3]: insoluble
dextromethorphan tannate [Commercially available D-M Tannate]	0.313		
O=C(OC[C@H]1O[C@@H](OC(=O)c2cc(O)c(O)c(OC(=O)c3cc(O)c(O)c(O)c3)c2)[C@H](OC(=O)c2cc(O)c(O)c(OC(=O)c3cc(O)c(O)c(O)c3)c2)[C@@H](OC(=O)c2cc(O)c(O)c(OC(=O)c3cc(O)c(O)c(O)c3)c2)[C@@H]1OC(=O)c1cc(O)c(O)c(OC(=O)c2cc(O)c(O)c(O)c2)c1)c1cc(O)c(O)c(OC(=O)c2cc(O)c(O)c(O)c2)c1 [tannic acid]		highly soluble	
